Laboratory results published in patent publication US11771702B2, “Agonists of PPAR-δ” (priority 2018, dated 2023).
Read-outs that look alike come from different tables or passages of the source.

Key:
PPAR-δ [1] = target: T1, PPAR-δ (Homo sapiens, UniProt Q03181); conditions: ligand of the PDB complex, published EC50; cited from earlier work
T1 sequence (Q03181 1-441): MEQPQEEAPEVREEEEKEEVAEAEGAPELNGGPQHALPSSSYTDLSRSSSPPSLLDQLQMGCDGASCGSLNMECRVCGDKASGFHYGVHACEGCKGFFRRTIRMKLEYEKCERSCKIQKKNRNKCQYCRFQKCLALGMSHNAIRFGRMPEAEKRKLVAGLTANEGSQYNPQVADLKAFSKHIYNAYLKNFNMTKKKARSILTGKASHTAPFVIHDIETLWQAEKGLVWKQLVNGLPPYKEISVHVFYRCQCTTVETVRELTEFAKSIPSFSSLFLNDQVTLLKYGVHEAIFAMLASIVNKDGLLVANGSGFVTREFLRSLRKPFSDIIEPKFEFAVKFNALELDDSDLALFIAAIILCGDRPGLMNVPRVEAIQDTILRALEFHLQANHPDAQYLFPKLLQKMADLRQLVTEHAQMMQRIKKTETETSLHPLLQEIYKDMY

PPAR-δ [2] = target: T2, PPAR-δ (Homo sapiens, UniProt Q03181); experiment: GAL4-DBD/PPAR-LBD luciferase reporter agonist assay in HEK293T cells, PPAR-δ; format: cell-based; conditions: for PPAR subtype selectivity: PPAR-δ vs PPAR-α and PPAR-γ
T2 construct: hPPARδ/LBD encoding amino acids 147-441; expressed in transfected cells; host or cells: HEK293T
T2 sequence (Q03181 147-441): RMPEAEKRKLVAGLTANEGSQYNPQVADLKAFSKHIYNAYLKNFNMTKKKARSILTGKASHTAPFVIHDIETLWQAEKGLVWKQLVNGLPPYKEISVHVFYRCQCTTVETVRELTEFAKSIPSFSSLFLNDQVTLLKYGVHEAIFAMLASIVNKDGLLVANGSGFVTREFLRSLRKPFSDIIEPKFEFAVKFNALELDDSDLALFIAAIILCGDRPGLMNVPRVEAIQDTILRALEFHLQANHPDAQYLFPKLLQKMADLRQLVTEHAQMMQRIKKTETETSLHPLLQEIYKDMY
Procedure: (§1) Measuring molecular agonist activities—a GAL4-DNA Binding Domain (GAL4-DBD) fusion protein was constructed for each PPAR family member. To assess compound activity, each construct was co-transfected into HEK293T cells (American Type Culture Collection; Manassas, Va.) along with the reporter construct, pGL5 (Promega) using Fugene 6 (Promega) as a transfection reagent and the manufacturer's protocol. An eleven-point dilution series of each compound was added to the cells and incubated overnight. Luciferase levels were then determined following the addition of Bright-Glo (Promega) using the manufacturer's recommendations.

PPAR-α = target: T3, PPAR-α (Homo sapiens, UniProt Q07869); experiment: GAL4-DBD/PPAR-LBD luciferase reporter agonist assay in HEK293T cells, PPAR-α; format: cell-based
T3 construct: hPPARα/LBD encoding amino acids 175-468; expressed in transfected cells; host or cells: HEK293T
T3 sequence (Q07869 175-468): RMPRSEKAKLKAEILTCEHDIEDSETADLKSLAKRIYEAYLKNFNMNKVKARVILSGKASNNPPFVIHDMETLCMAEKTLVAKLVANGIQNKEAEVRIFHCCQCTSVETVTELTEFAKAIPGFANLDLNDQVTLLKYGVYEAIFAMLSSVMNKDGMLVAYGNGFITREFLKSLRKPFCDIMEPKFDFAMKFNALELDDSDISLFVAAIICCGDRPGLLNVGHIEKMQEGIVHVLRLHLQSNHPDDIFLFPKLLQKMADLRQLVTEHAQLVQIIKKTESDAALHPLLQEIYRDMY
Procedure: as §1

PPAR-γ = target: T4, PPAR-γ (Homo sapiens, UniProt P37231); experiment: GAL4-DBD/PPAR-LBD luciferase reporter agonist assay in HEK293T cells, PPAR-γ; format: cell-based
T4 construct: hPPARγ/LBD encoding amino acids 184-477; expressed in transfected cells; host or cells: HEK293T
T4 sequence (P37231 184-477 isoform P37231-2): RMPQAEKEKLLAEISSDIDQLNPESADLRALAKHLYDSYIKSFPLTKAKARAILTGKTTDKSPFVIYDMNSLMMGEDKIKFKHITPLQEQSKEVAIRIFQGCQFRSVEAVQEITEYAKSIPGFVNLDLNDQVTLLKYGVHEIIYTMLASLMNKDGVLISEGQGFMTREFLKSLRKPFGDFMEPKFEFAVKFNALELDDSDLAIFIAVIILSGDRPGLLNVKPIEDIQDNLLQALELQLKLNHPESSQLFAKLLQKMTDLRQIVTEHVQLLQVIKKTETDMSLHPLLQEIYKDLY
Procedure: as §1

[3] = Table 10 (PPAR-δ), read-out: PPAR-δ EC50

Row | Compound | EC50 (PPAR-δ [2]; Table 10) | EC50 (PPAR-α; Table 10) | EC50 (PPAR-δ [2]; Table 9) | also measured
1 | CC/C=C\C/C=C\C/C=C\C/C=C\C/C=C\CCCC(=O)O [3GXW] | – | – | – | EC50 (PPAR-δ [1]): 4 µM
2 | O=C(COc1ccc(C(=O)O)cc1)NC(c1ccccc1)c1ccc(Cl)cc1 (stereo not shown) [GNF-0248] | 7.55 µM | 7.04 µM | – | –
3 | Cc1ccc(C(=O)Nc2cccc(CNCc3ccc(OC(F)(F)F)cc3)c2)cc1 [GNF-0341] | – | – | 0.011 µM | PPAR subtype selectivity (PPAR-δ [2]): agonists of PPAR-δ and PPAR-γ only; EC50 (PPAR-γ; Table 9, read-out: PPAR-γ EC50): 1.26 µM
4 | O=C(O)Cc1csc(SCc2cc(F)cc3c2OC(c2ccccc2)OC3)n1 (stereo not shown) [GNF-1051] | 7.76 µM | 7.33 µM | – | –
5 | CCCOc1c(/C=C/C(=O)c2ccc(SCC(=O)O)c(OC)c2)cccc1OCC [GNF-1676] | 8.39 µM | 6.2 µM | – | EC50 (PPAR-γ; [3]): 1.29 µM
6 | O=C(NCc1ccc(COCC(F)(F)F)cc1)c1cc(-c2ccccc2)[nH]n1 [GNF-3632] | – | – | 0.007 µM | PPAR subtype selectivity (PPAR-δ [2]): agonists of PPAR-δ and PPAR-α only; EC50 (PPAR-α; Table 9): 5.48 µM
7 | CCOc1cc(/C=C/C(=O)O)ccc1OCc1ccc(C(C)(C)C)cc1 [GNF-4516] | 6.82 µM | 2.33 µM | – | –
8 | COc1ccc(C(=O)/C=C/c2c(C)nn(-c3ccccc3)c2Cl)cc1CSCC(=O)O [GNF-4909] | 8.24 µM | 0.825 µM | – | EC50 (PPAR-γ; [3]): 1.83 µM
9 | COCCCn1c(SCc2cccc(C(=O)O)c2)nc2sc3c(c2c1=O)CCCS3 [GNF-5154] | 7.04 µM | > 10 µM | – | EC50 (PPAR-γ; [3]): > 10 µM
10 | CCc1cc(C(c2cccc(OC)c2)N2CCN(CCO)CC2)c(NC(=O)c2ccccc2)s1 (stereo not shown) [GNF-5295] | – | – | 0.013 µM | PPAR subtype selectivity (PPAR-δ [2]): agonists of PPAR-δ and PPAR-γ only; EC50 (PPAR-α; Table 9): > 10 µM; EC50 (PPAR-γ; Table 9, read-out: PPAR-γ EC50): 7.28 µM
11 | COc1cc(/C=C2/S/C(=N/c3ccccc3)NC2=O)ccc1OCc1cccc(C(=O)O)c1 [GNF-5758] | 4.33 µM | 6.93 µM | – | EC50 (PPAR-γ; [3]): 9.73 µM
12 | O=C(Nc1ccccc1O)C1CCN(C(=O)COc2ccc(F)cc2)CC1 [GNF-5891] | – | – | 0.017 µM | EC50 (PPAR-γ; Table 9, read-out: PPAR-γ EC50): > 10 µM
13 | O=C(Nc1cccc(CNCC(c2cccs2)N2CCOCC2)c1)c1ccc(Cl)cc1 (stereo not shown) [GNF-6029] | – | – | 0.012 µM | –
14 | CCOc1cccc(/C=N/c2cccc(-c3csc(/N=C/c4cccc(OCC)c4O)n3)c2)c1O [GNF-6878] | – | – | 0.008 µM | –
15 | O=C(OCC(=O)c1ccc(O)cc1O)c1ccc(COc2ccc3ccccc3c2)o1 [GNF-6928] | 3.7 µM | 6.9 µM | – | EC50 (PPAR-γ; [3]): 3.78 µM
16 | COc1cc(CNCc2cc(C)on2)ccc1OCC(=O)Nc1ccc(Br)cc1 [GNF-6952] | – | – | 0.019 µM | PPAR subtype selectivity (PPAR-δ [2]): agonists of PPAR-δ and PPAR-α only; EC50 (PPAR-α; Table 9): 7.56 µM
17 | O=C(NCCCCOc1ccc(F)cc1)c1ccc([N+](=O)[O-])c(O)c1 [GNF-7176] | 7.24 µM | – | – | –
18 | COc1ccc(N2CCN(C(=O)CSc3nnc(COc4ccc(Cl)cc4C)[nH]3)CC2)cc1 [GNF-7486] | – | – | 0.018 µM | –
19 | CC(C(=O)Nc1ccc(SC(F)F)cc1)N1CC=C(c2ccc(O)cc2)CC1 (stereo not shown) [GNF-8208] | 7.86 µM | – | – | –
20 | O=C(CN1CCN(c2ccc(O)cc2)CC1)NCC1(N2CCOCC2)CCCCC1 [GNF-8501] | – | – | 0.006 µM | –
21 | CCOC(=O)NC(=O)COC(=O)c1c2c(nc3ccccc13)/C(=C\c1ccc(OC)cc1)CC(C)C2 (stereo not shown) [GNF-8560] | – | – | 0.011 µM | PPAR subtype selectivity (PPAR-δ [2]): pan-agonist; EC50 (PPAR-α; Table 9): 1.41 µM; EC50 (PPAR-γ; Table 9, read-out: PPAR-γ EC50): 3.53 µM
22 | Cc1cc(C(=O)COc2ccc(C(=O)O)cc2)c(C)n1CCC1=CCCCC1 [GNF-9057] | 7.49 µM | 4.63 µM | – | EC50 (PPAR-γ; [3]): 8.6 µM
23 | O=C(Nc1ccccc1O)C1CCN(C(=O)c2ccc(OCC3CCCO3)cc2)CC1 (stereo not shown) [GNF-9448] | – | – | 0.883 µM | EC50 (PPAR-α; Table 9): 7.06 µM; EC50 (PPAR-γ; Table 9, read-out: PPAR-γ EC50): 0.937 µM
24 | O=[N+]([O-])c1cc(S(=O)(=O)N2CCCC2)ccc1OCC(O)CNCc1ccc(F)cc1 (stereo not shown) [GNF-9594] | 4.6 µM | – | – | –
25 | Cc1ccc(-c2nc(SCCCC(=O)N3CCOCC3)[nH]c2-c2ccc(C)cc2)cc1 [GNF-9820] | – | – | 0.012 µM | –
26 | Cc1cc(C(=O)COC(=O)c2ccc(O)cc2O)c(C)n1Cc1ccc(F)cc1 [GNF-9969] | 9.48 µM | 6.94 µM | – | EC50 (PPAR-γ; [3]): 1.01 µM
